Patent US20240390457A1, “COMPOSITION AND METHOD OF TREATING BRAIN CANCER” (Morehouse School of Medicine, priority 2023, published 2024)
Where no end group is shown, it is not given here.

Tests used:
ASIC1 = biological target: T1, ASIC1 (Homo sapiens, UniProt P78348); experiment: Whole-cell patch-clamp recording of acid-activated currents; assay type: cell-based; settings: PcTX1 20 nM perfusion for several minutes; pH drop 7.4 to 6.0; U87MG cells; n=5
T1 construct: drop of extra-cellular pH from 7.4 to 6.0 can induce transient inward currents in A172 and U87MG cells; endogenous in cells; host or cells: U87MG human glioblastoma cells (ATCC)
T1 sequence (P78348 1-528): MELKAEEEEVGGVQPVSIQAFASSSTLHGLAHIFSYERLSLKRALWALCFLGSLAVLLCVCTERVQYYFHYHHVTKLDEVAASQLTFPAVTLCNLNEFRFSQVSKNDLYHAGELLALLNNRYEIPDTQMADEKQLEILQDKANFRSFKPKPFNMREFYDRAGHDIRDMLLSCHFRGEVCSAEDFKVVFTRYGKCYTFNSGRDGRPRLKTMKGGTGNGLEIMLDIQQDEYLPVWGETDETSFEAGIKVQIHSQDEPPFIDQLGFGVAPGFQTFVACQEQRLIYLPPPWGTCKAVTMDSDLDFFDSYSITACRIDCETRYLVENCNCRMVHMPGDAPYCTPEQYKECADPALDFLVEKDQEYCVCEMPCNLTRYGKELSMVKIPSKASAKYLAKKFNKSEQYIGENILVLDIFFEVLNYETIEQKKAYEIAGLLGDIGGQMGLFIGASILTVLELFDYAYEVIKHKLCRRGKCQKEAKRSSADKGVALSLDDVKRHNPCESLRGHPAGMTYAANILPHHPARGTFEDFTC
Experimental: Whole-cell currents were recorded by patch-clamp techniques. The currents were recorded with an Axopatch 200B amplifier and low-pass filtered at 2 KHz, digitized using Digidata 1320 DAC unit. Cells were clamped at a holding potential of −80 mV. The patch pipettes were made from thin walled borosilicate glass micropipettes (1.5 mm diameter, World Precision Instruments, Sarasota, FL) by a micropipette puller (PP83; Tokyo, Japan). The range of pipette resistance was 3-5 MΩ when filled with intracellular solu-tion contained 140 mM CsF, 1 mM CaCl2, 2 mM MgCl2, 10 mM HEPES, 11 mM EGTA, 2 mM tet-raethylammonium chloride, and 4 mM MgATP; pH 7.3 adjusted with CsOH, 290 to 300 mOsm adjusted with sucrose. Cells were perfused with an extracellular fluid (ECF) contained 140 mM NaCl, 5.4 mM KCl, 2 mM CaCl2, 1 mM MgCl2, 10 mM Glucose, and 10 mM HEPES; pH 7.4 and 6.0 adjusted with NaOH, 320-330 mOsm. […] The data were recorded and analyzed with pClamp and Sigma Plot software.
To determine whether ASIC1 is expressed in human glioma cells, we first investigated the expression of ASIC1 protein in A172 and U87-MG cells by Western blotting. […] Next, the study detected the existence of acid-activated currents and the effect of pharmacologic agents on the currents. Acid-activated currents were recorded by whole cell patch-clamp. […]

A172 cells [1] = experiment: Cell viability (MTT) proliferation assay, A172; assay type: cell-based, human; settings: 20 nM PcTX1, 3 h in pH 7.4 or 7.0 ECF; 24 h, 48 h and 72 h
Experimental: (§1) Cells were seeded in 96-well plates overnight and then incubated with pH 7.4 or 7.0 ECF in the absence or presence of 20 nM PcTX1 for 3 h, and then changed to culture medium containing 5% FBS incubating for 24 h, 48 h and 72 h. After the treatments, cell viability was measured by MTT Cell Proliferation Assay Kit according to the manufacturer's instructions. The absorbance values at 540 nm were detected by spectrometer (Molecular devices).
(§2) Severe acidosis (e.g. pH 6.0) promotes the proliferation of some type of glioma cells. This study first tested the effect of weak acid on the proliferation of A172 and U87MG cells. The study used either pH 7.4 or pH 7.0 solution to pretreat cells for 3 h, and then changed back to medium containing 5% FBS. The cell viability was measured at 24 h, 48 h and 72 h after acid treatment by MTT assay.

U87MG cells [2] = experiment: Cell viability (MTT) proliferation assay, U87MG; assay type: cell-based, human; settings: 20 nM PcTX1 with weak acid (pH 7.0), 3 h; different time points
Experimental: as §1, §2
(§3) Next, the study examined whether knock-down of ASIC1 affects cell proliferation in the presence or absence of extracellular weak acid. MTT assay was performed to detect the cell viability at 24 h and 72 h with and without acid treatment both in siRNA-Control and siRNA-ASIC1 groups. […] The study further examined whether knockdown of ASIC1 has an effect on the migration of U87MG cells. […] The effect of ASIC1 knockdown on migration was also assessed by transwell.

A172 cells [3] = experiment: Transwell migration assay, A172; assay type: cell-based, human; settings: PcTX1 20 nM, pH 7.0 for 3 h, counted after 24 h
Experimental: (§4) The assay is based on two compartments separated by a mem-brane with an accurately defined pore size. Cell transwell chambers with 8-μm pore size of poly-carbonate membrane filters (Corning, USA) were first pre-coated with poly-L-ornithine over-night. Before plating cells, chambers were incubated with serum-free culture medium for 30 minutes. After that, cells were seeded with culture medium containing 1% FBS in the upper-chambers that were immersed to 750 μl whole medium (DMEM with 10% FBS). After incubating for another 24 hours, some cells on the upper surface of the filter migrated through the membrane to the lower surface of the filter. Cells on the upper face of the filter were wiped out thoroughly with cotton swabs, and those attached on the lower surface were fixed with 4% paraformaldehyde for 15 min. They were then stained with 0.5% crystal violet for 10 min, and let the membrane air dry. The cells on the lower surface of the membrane filter were counted under a microscope in 3-4 random fields with 10× magnification. Cell numbers in each group were normalized to the control groups. Assays were performed in at least 3 independent experiments.
To further examine the role of ASIC1 in glioma cell migration, the study performed a transwell migration assay using inserts with an 8-μm pore size. […]

U87MG cells [4] = experiment: Transwell migration assay, U87MG; assay type: cell-based, human; settings: PcTX1, pH 7.0 for 3 h, counted after 24 h
Experimental: as §4, with “experiments. […]” for “experiments.”
Next, the study examined whether knock-down of ASIC1 affects cell proliferation in the presence or absence of extracellular weak acid. […] The effect of ASIC1 knockdown on migration was also assessed by transwell.

U87MG cells [5] = experiment: Wound-healing assay, U87MG; assay type: cell-based, human; settings: weak acid pH 7.0
Experimental: (§5) Wound-healing assay was performed. Cells were seeded into a 24-well plate and grown to ˜80% confluence. The cell monolayer was scratched with 200 μl sterile pipette tip and treated with ECF with or without PcTX1 for 3 hours. The original wound areas at 0 hour were photographed with microscope (Olympus FSX100, 4×). After 3 hours, cells were then incubated with culture medium containing 1% FBS for 24 hours. 24 hours later, images were taken from the same location of the original wound areas and the migration distance was measured with Image J software. The wound-healing rate was calculated as: the ratio of wound closure=[(Area of original wound at 0 h−Area of wound after healing at 24 h)/Area of original wound at 0 h]×100%.
as §3

A172 cells [6] = experiment: Wound-healing assay, A172; assay type: cell-based, human; settings: weak acid pH 7.0
Experimental: as §5

In the case of “PcTX1 (LECWKRRRSFEVCVPKTPKT; ends and bridges not checked; cysteine pairing not given here)”, the “decrease of the peak of acid-activated currents” value (ASIC1) is reported as 80%, the “effect on proliferation of A172 cells (MTT)” value (A172 cells [1]) is reported as “no influence” and the “effect on proliferation of U87MG cells (MTT)” value (U87MG cells [2]) is reported as “no clear effect”. For the same substance, the “effect on acid induced migration of A172 cells (transwell)” value (A172 cells [3]) was “completely inhibited”, the “effect on acid-induced increase of migrated U87MG cells (transwell)” value (U87MG cells [4]) was “completely blocked” and the “effect on acid-induced migration of U87MG cells (wound-healing and transwell, summary)” value (U87MG cells [5]) was “effectively blocked”. For the same substance, the “effect on acid-induced migration of A172 cells (wound-healing and transwell, summary)” value (A172 cells [6]) was “effectively blocked”.
